Values of other authors, collected in patent publication EP1385541B1, “IMMUNOSTIMULANT COMPOSITIONS COMPRISING AN AMINOALKYL GLUCOSAMINIDE PHOSPHATE AND QS-21” (priority 2000, dated 2001).
Like-named read-outs stand apart in the source and are kept apart here.

Experiments:
[1] = system: sheep red blood cells; conditions: substantially pure QS-21 saponin, as described in U.S. Patent No. 5,057,540

**Q.** Which critical micellar concentration (in phosphate buffered saline) does the source give for QS-21 here?
**A.** ~0.02 % (w/v)

**Q.** And the critical micellar concentration (in water)?
**A.** about 0.03 % (w/v)

**Q.** And the “hemolysis of sheep red blood cells at concentrations of” value [1]?
**A.** ≥ 25 µg/mL
